Assay in all cases: microbe, parasite or virus in culture
For assay [1], the system named is Escherichia coli.
The subject of assay [2] is Escherichia coli. The source holds these as a separate data set.
For assay [3], the system named is Escherichia coli. The source holds these as a separate data set.
Assay [4] concerns Escherichia coli. The source holds these as a separate data set.
The test system of assay [5] is Escherichia coli. The source holds these as a separate data set.
The test system of assay [6] is Escherichia coli. This is another data set of the same source.
The test system of assay [7] is Escherichia coli. This is another data set of the same source.
For assay [8], the system named is Escherichia coli. This is another data set of the same source.
Assay [9] concerns Escherichia coli. This is another data set of the same source.
The subject of assay [10] is Escherichia coli. This is another data set of the same source.
Assay [11] relates to Escherichia coli. This is another data set of the same source.
For assay [12], the system named is Escherichia coli. This is another data set of the same source.
Assay [13] concerns Escherichia coli. This is another data set of the same source.
In assay [14] the test system is Escherichia coli. The source holds these as a separate data set.
For assay [15], the system named is Escherichia coli. This is another data set of the same source.
Assay [16] deals with Escherichia coli. The source holds these as a separate data set.
Assay [17] has as its system Escherichia coli. This is another data set of the same source.
The test system of assay [18] is Escherichia coli. The source holds these as a separate data set.
Assay [19] relates to Escherichia coli. This is another data set of the same source.
The test system of assay [20] is Escherichia coli. This is another data set of the same source.
The subject of assay [21] is Escherichia coli. This is another data set of the same source.

Values after ≈ are worked out from the molar mass of the structure shown. Some results are limits rather than exact numbers.

For `CO/N=C(\C(=O)N[C@@H]1C(=O)N2C(C(=O)[O-])=C(C[N+]3(C)CCCC3)CS[C@H]12)c1csc(N)n1`, the MIC against Escherichia coli [1] came out at 4 µg/mL (≈ 8.32 µM); in the assay with Escherichia coli [2] it was 0.125 µg/mL (≈ 0.26 µM); against Escherichia coli [3], 0.125 µg/mL (≈ 0.26 µM); in the assay with Escherichia coli [4] it was 4 µg/mL (≈ 8.32 µM); with Escherichia coli [5] it was 4 µg/mL (≈ 8.32 µM); with Escherichia coli [6], 1 µg/mL (≈ 2.08 µM). The MIC was 0.125 µg/mL (≈ 0.26 µM) with Escherichia coli [7]; 1 µg/mL (≈ 2.08 µM) against Escherichia coli [8]; 0.125 µg/mL (≈ 0.26 µM) in the assay on Escherichia coli [9]; 1 µg/mL (≈ 2.08 µM) in the assay on Escherichia coli [10]; at most 0.03 µg/mL against Escherichia coli [11]; 0.125 µg/mL (≈ 0.26 µM) against Escherichia coli [12]. The MIC with Escherichia coli [13] turned out to be 1 µg/mL (≈ 2.08 µM); in the assay on Escherichia coli [14], 0.25 µg/mL (≈ 0.52 µM); against Escherichia coli [15], 16 µg/mL (≈ 33.3 µM); against Escherichia coli [16], 0.25 µg/mL (≈ 0.52 µM); against Escherichia coli [17] it was 16 µg/mL (≈ 33.3 µM); in the assay with Escherichia coli [18], 1 µg/mL (≈ 2.08 µM). The MIC against Escherichia coli [19] was 0.25 µg/mL (≈ 0.52 µM); in the assay on Escherichia coli [20] it was 0.125 µg/mL (≈ 0.26 µM); in the assay on Escherichia coli [21], 0.25 µg/mL (≈ 0.52 µM).

For the origin of these results see ChEMBL document CHEMBL4184210, “Optimization of novel monobactams with activity against carbapenem-resistant Enterobacteriaceae - Identification of LYS228” (Bioorg Med Chem Lett, 2018).
